Assay results reported in patent US9663453B2, “Metabolites and oximes with vasodilator and hypotensive activity” (Universidad de Antofagasta, priority 2014, dated 2017).
Values joined by “and” are separate entries in the source; they are usually repeats but may differ in a detail not shown here. Identical values can stand only once. Like-named read-outs stand apart in the source and are kept apart here.

Assays:
[1] = test system: PHE-precontracted rat aorta with endothelium (E+); assay: Vasodilator effect in PHE-precontracted rat aortic rings with intact endothelium (E+); format: cell-based; settings: for EC50: read-out: EC50 (concentration required to achieve 50% relaxation of tissue)
Description: (§1) 3-5 months old rats with an average weight of 270±30 g, were used for vascular reactivity experiments.
(§2) Measure of Dilation Activity in Rat Aortic Rings
(§3) Obtaining Aorta rings: Group II rats fasted 24 hours were euthanized by cervical fracture. Thoracic aorta was excised carefully from distal to proximal, from the abdominal aortic bifurcation to aortic arch and placed in a Petri dish containing Krebs-Ringer solution at room temperature with the following composition: 120 mM NaCl; 4.2 mM KCl; 1.18 mM KH2PO4; 1.2 mM MgSO4; 1.3 mM CaCl2; 5 mM C6H12O6; and 25 mM NaHCO3 pH 7.4 and constantly gasified with a mixture of 95% O2 and 5% CO2. After removing blood, fat and connective tissue, the aorta was transversely cut in cylindrical rings 2-3 mm in diameter.
(§4) Mounting of Rings: Each ring was mounted between two triangular stainless steel hooks, one hook was suspended in a glass rod (anchorage) and placed in a Single Organ Chamber with 10 ml Krebs-Ringer constantly aerated with 95% O2 and 5% CO2 gaseous mixture and maintained at 37° C. by thermo regulated pump. The second hook was connected by a thread to an Isometric Force Transducer XDCR (Radnoti Glass Technology Inc. USA.), connected to a data acquisition unit PowerLab 8/30 (ADInstruments). The data were processed using LabChart 7 Pro software, provided by ADInstruments.
(§5) Conditioning of Tissue: After being mounted rings were left to rest with no tension for 30 minutes. Subsequently Krebs-Ringer solution was replaced and rings were allowed to rest for 10 minutes. The rings were then carefully tensioned twice at intervals of 10 minutes each at 1.00 g tension value using micromanipulators. Two settings of tension at 1.40 g at 10 minutes interval each were then made. After the period of stabilization of the tissue, tissue viability was assessed by the addition of solution of 60 mM potassium chloride (KCl). After 10 minutes of contraction of the tissue, it was washed twice at intervals of 5 minutes each before the next addition of KCl.
(§6) Measure of vasodilatory activity: The aortic tissue with endothelium already conditioned was applied a tension of 1.4 g, 1 μM PHE solution was added after 10 minutes. PHE was added cumulatively to each single organ bath after stabilization of PHE-induced contractile response. Stock solutions of 10^−1 M concentration in DMSO were prepared to determine the vasodilatory activity of the isolated metabolites. […] The vasodilator effect was recorded for a period of 30 minutes for each of the concentrations used (FIG. 1). The results are expressed as relaxation percent using the following formula: […]
(§7) wherein R1 is the response induced by PHE and R2 is the response after the extracts are added.
(§8) Endothelium integrity was tested by addition of 1 μM ACh to rings precontracted with 1 uM PHE, and rings were considered with intact endothelium when the ACh dilator response was greater than 80%. While rings with response lower than 10% were discarded (FIG. 2).
(§9) Vascular reactivity experiments were performed to establish the vasodilator action of the isolated compounds. For this, compounds at concentration of 10^−4M were added to the organ chamber, the vasodilatory effect in rings with intact endothelium (E+) and without endothelium (E−) pre-contracted with 1 μM PHE was quantified. We performed parallel vehicle control (DMSO) to discard the relaxing effect of aortic tissue.

[2] = test system: anesthetized rats; assay: In vivo hypotensive effect in anesthetized rats (mean blood pressure after intravenous administration); settings: for % MBP reduction / MBP: mean ± SE
Description: Animals used were female albino rats of the Sprague-Dawley strain, obtained from the vivarium of the Universidad de Antofagasta. Two groups of animals were used separated by age:
10-14 months old rats with an average weight of 400±70 g, were used for in vivo experiments. These animals were chosen according to their baseline health status of mild hypertension.
In Vivo Tests—Hypotensive Effect in Anesthetized Rats In vivo experiments were performed using the following protocol. Group I rats were anesthetized with a 5% sodium thiopental aqueous solution at doses of 50 mg/kg animal body weight by intraperitoneal injection. The femoral vein was exposed and cannulated with a PE-10 […] catheter for administering extracts, metabolites and drugs. The right carotid artery was exposed and cannulated using a PE-50 […] catheter filled with heparinized saline (100 IU/mL). This catheter was connected to a pressure transducer (TSD104A) coupled to a data acquisition unit MP100 (BIOPAC Systems Inc) for recording blood pressure. The trachea was exposed and cannulated to facilitate spontaneous breathing of animals. Simultaneously, an ECG recording in derivation II (DII-ECG) was performed using an ECG100B (BIOPAC Systems Inc) module connected to a data acquisition unit MP100. The level of anesthesia of the animals was under constant supervision, so as to remain within surgical levels.
Prior to administration of the next dose, blood pressure and ECG recording were monitored until complete recovery of baseline parameters (pressure and ECG). Effects of each administered dose was measured relative to changes in mean blood pressure, diastolic blood pressure, systolic blood pressure, electrocardiographic changes and compared against the effect of propranolol as a positive control at concentration of 10 mg/Kgweight. After completion of each experiment animals were euthanized by an overdose of anesthetic, by femoral route. The results are expressed as % reduction in BMP, parameter determined using the following equation.
Wherein B is the baseline BMP and E is the value of BMP produced by different doses studied.
All records were performed using 3.9.6.1 Acknowledge software (BIOPAC Systems Inc) and statistical analysis was performed using GraphPad Prism 5.03 software (GraphPad Software Inc.)

[3] = test system: PHE-precontracted rat aorta without endothelium (E−); assay: Vasodilator effect in PHE-precontracted rat aortic rings without endothelium (E−); format: cell-based; settings: for Emax at 100 µM: read-out: Emax, maximum relaxation effect; for EC50: dose-response curve; for Emax: read-out: Emax (% relaxation) of dose-response curve
Description: as §1, §2, §3, §4, §5, §6, §7, §8, §9

[4] = Rattus norvegicus, compound at 10^−4 M, rings with intact endothelium (E+) pre-contracted with 1 μM PHE, FIG. 5A, read-out: Emax (% relaxation)
[5] = Rattus norvegicus, dose-response curve, E+
[6] = Rattus norvegicus, maximum effect at 10^−4 M, increasing doses, E+, read-out: Emax (% relaxation) of dose-response curve
[7] = Rattus norvegicus, compound at 10^−4 M, rings without endothelium (E−) pre-contracted with 1 μM PHE, FIG. 5B
[8] = Rattus norvegicus, increasing doses up to 10^−4 M, E−
[9] = dose 10^−8 (head: mg/Kgweight; text: M), intravenous
[10] = dose 10^−9 (head: mg/Kgweight; text: M), intravenous
[11] = dose 10^−10 (head: mg/Kgweight; text: M), intravenous
[12] = positive control, propranolol 10^−6 M

Structure (SMILES): CC(=O)OCC[N+](C)(C)C [ACh, acetylcholine, reference compound]
- Emax at 1 µM ([1]; Rattus norvegicus, 10^−6 M ACh, rings with intact endothelium (E+), FIG. 5A, read-out: Emax (% relaxation), positive control): 105 ± 5%

Structure (SMILES): CC(=O)c1ccc(O)c(CC=C(C)C)c1 [Metabolite (A), 4-hydroxy-3-(isopenten-2-yl)-acetophenone]
- % MBP reduction ([2]; dose 10^−4 M, intravenous): 46.93±1.01%
- MBP ([2]; dose 10^−4 M, intravenous): 72.12 ± 2.92 mmHg
- % MBP reduction ([2]; dose 10^−4 M, intravenous, listed as Metabolite 1): 46.93 ± 1.01%
- % MBP reduction ([2]; dose 10^−5 M, intravenous): 45.37 ± 1.09%
- MBP ([2]; dose 10^−5 M, intravenous): 74.24 ± 2.76 mmHg
- % MBP reduction ([2]; dose 10^−6 M, intravenous): 35.92 ± 2.01%
- MBP ([2]; dose 10^−6 M, intravenous): 87.09 ± 1.14 mmHg
- % MBP reduction ([2]; dose 10^−7 M, intravenous): 29.68 ± 3.42%
- MBP ([2]; dose 10^−7 M, intravenous): 95.56 ± 5.01 mmHg
- % MBP reduction ([2]; dose 10^−8 M, intravenous): 25.68 ± 5.24%
- MBP ([2]; dose 10^−8 M, intravenous): 101.0 ± 8.06 mmHg
- % MBP reduction ([2]; dose 10^−9 M, intravenous): 23.62 ± 5.76%
- MBP ([2]; dose 10^−9 M, intravenous): 103.8 ± 7.98 mmHg
- % MBP reduction ([2]; dose 10^−10 M, intravenous): 16.56 ± 9.38%
- MBP ([2]; dose 10^−10 M, intravenous): 113.4 ± 12.59 mmHg
- concentration from which the effect on MBP starts being significant ([2]; intravenous, anesthetized rats): ≥ 10^−6 M
- Emax at 100 µM [1, 4]: 122 ± 2.09%
- EC50 [1, 5]: 8.98 nM
- Emax at 100 µM [1, 6]: 111 ± 7.62%
- concentration from which the vasodilator effect started ([1]; dose-response curve, E+): ≥ 10^−8 M
- Emax at 100 µM [3, 7]: 118 ± 10.7%
- EC50 ([3]; Rattus norvegicus, E−): 7.31 nM
- Emax [3, 8]: 109 ± 7.53%

Structure (SMILES): C=C(C)[C@@H]1Cc2cc(C(C)=O)c(O)cc2O1 [Metabolite (B), 6-hydroxy-2-isopropenyl-5-acetyl-2,3-dihydrobenzofuran]
- Emax at 100 µM [1, 4]: 135 ± 3.78%
- EC50 [1, 5]: 7.16 nM
- Emax at 100 µM [1, 6]: 112 ± 6.21%
- concentration from which the vasodilator effect started ([1]; dose-response curve, E+): ≥ 10^−8 M
- Emax at 100 µM [3, 7]: 146 ± 4.49%
- EC50 ([3]; Rattus norvegicus, E−): 5.94 nM
- Emax [3, 8]: 109 ± 7.53%

Structure (SMILES): CC(C)=CCc1cc(/C(C)=N/O)ccc1O [Oxime (1), 4-hydroxy-3-(isopenten-2-yl)-acetophenoxime]
- % MBP reduction ([2]; dose 10^−7 (head: mg/Kgweight; text: M), intravenous, maximum effect): 70.61 ± 4.32%
- % MBP reduction ([2]; dose 10^−7 (head: mg/Kgweight; text: M), intravenous, maximum effect, listed as oxime (1)): 70.61±4.32%
- MBP ([2]; dose 10^−7 (head: mg/Kgweight; text: M), intravenous): 41.65 ± 0.85 mmHg
- % MBP reduction [2, 9]: 58.31 ± 3.26%
- MBP [2, 9]: 59.05 ± 2.09 mmHg
- % MBP reduction [2, 10]: 38.41 ± 2.35%
- MBP [2, 10]: 87.28 ± 1.90 mmHg
- % MBP reduction [2, 11]: 36.60 ± 7.90%
- MBP [2, 11]: 89.84 ± 10.88 mmHg
- concentration from which the effect on MBP starts being significant ([2]; intravenous, anesthetized rats): ≥ 10^−9 M
- doses that induced acute hypotension and subsequent animal death by cardiac arrest ([2]; intravenous, anesthetized rats): higher than 10^−7 M
- Emax at 100 µM [1, 4]: 130 ± 2.54%
- EC50 [1, 5]: 6 nM
- Emax at 100 µM [1, 6]: 119 ± 3.92%
- tissue relaxation ([1]; at concentration 10^−5 M, dose-response curve, E+): 101.6±0.90%
- concentration from which the vasodilator effect started ([1]; dose-response curve, E+): ≥ 10^−9 M
- Emax at 100 µM [3, 7]: 120 ± 1.74%
- EC50 ([3]; Rattus norvegicus, E−): 6.56 nM
- Emax [3, 8]: 114 ± 6.19%

Structure (SMILES): C=C(C)C1Cc2cc(C(C)=NO)c(O)cc2O1 (centres unmarked) [Oxime (2), 6-hydroxy-2-isopropenyl-5-acetyloxime-2,3-dihydrobenzofuran]
- Emax (% relaxation) ([1]; compound at 10^−4 M, rings with intact endothelium (E+) pre-contracted with 1 μM PHE, FIG. 5A): 118.4±0.93%
- concentration from which the vasodilator effect started ([1]; dose-response curve, E+): ≥ 10^−8 M
- EC50 ([1]; dose-response curve, E+): 4.3 nM
- Emax (% relaxation) of dose-response curve ([1]; maximum effect at 10^−4 M, increasing doses, E+): 109.3±2.72%
- Emax, maximum relaxation effect ([3]; compound at 10^−4 M, rings without endothelium (E−) pre-contracted with 1 μM PHE, FIG. 5B): 117.7±1.00%
- EC50 ([3]; E−): 4.65 nM
- Emax (% relaxation) of dose-response curve ([3]; increasing doses up to 10^−4 M, E−): 110.3±4.40%

Structure (SMILES): CC(C)NCC(O)COc1cccc2ccccc12 (centres unmarked) [propranolol, reference compound]
- % MBP reduction [2, 12]: 18.99 ± 4.35% and 22.29 ± 3.20%
- MBP [2, 12]: 110.1 ± 6.03 mmHg and 108.70 ± 8.55 mmHg
